Earlier results as cited in patent US20140314729A1, “NUTRACEUTICAL FORMULATION FOR TREATMENT OF ELEVATED CHOLESTEROL AND CARDIOVASCULAR DISEASE” (Creative Medical Health Inc., priority 2013, published 2014).

Tests used:
mouse model = conditions: 150 mg/kg body weight for 10 days
volunteers = conditions: 1.6 mg daily, 42-day period
[1] = test system: streptozotocin-treated rats; conditions: 80 μg/kg body weight daily for two weeks; P<0.001
HIV-positive subjects = conditions: 1000 µg/day for eight weeks
[2] = test system: patients with type 2 diabetes; conditions: oral 200 mg/day for 12 weeks

Compound: CC(C)(COP(=O)(O)O)[C@@H](O)C(=O)NCCC(=O)O [phosphopantothenate]
- content of triglycerides, total cholesterol and cholesterol esters in serum and adipose tissue (mouse model): decreased

Compound: chromium picolinate
- decrease in LDL cholesterol (volunteers): 10.5%
- decrease in total cholesterol (volunteers): 7%
- LDL cholesterol after treatment (volunteers; from 200): 178 mg per dl
- total cholesterol after treatment (volunteers; from 276): 256 mg per dl
- average lowering of blood glucose compared with high-fat diet alone [1]: 63%
- lowering of total cholesterol compared with high-fat diet alone [1]: 9.7%
- lowering of triglycerides compared with high-fat diet alone [1]: 6.6%
- increase of mean rate of glucose disposal (HIV-positive subjects): 25%
- mean rate of glucose disposal after treatment (HIV-positive subjects; from 4.41, range 3.19-12.78, p=0.03): 6.51 mg/kg LBM/min

Compound: COC1=C(OC)C(=O)C(C/C=C(\C)CC/C=C(\C)CC/C=C(\C)CC/C=C(\C)CC/C=C(\C)CC/C=C(\C)CC/C=C(\C)CC/C=C(\C)CC/C=C(\C)CCC=C(C)C)=C(C)C1=O [coenzyme Q10]
- brachial artery flow-mediated dilation [2]: increased
